In ChEMBL document CHEMBL5241054, “Effective anti-aromatase therapy to battle against estrogen-mediated breast cancer: Comparative SAR/QSAR assessment on steroidal aromatase inhibitors” (Eur J Med Chem, 2020):

Biological target: T1, Aromatase (Homo sapiens, UniProt P11511)
T1 sequence (P11511 whole entry): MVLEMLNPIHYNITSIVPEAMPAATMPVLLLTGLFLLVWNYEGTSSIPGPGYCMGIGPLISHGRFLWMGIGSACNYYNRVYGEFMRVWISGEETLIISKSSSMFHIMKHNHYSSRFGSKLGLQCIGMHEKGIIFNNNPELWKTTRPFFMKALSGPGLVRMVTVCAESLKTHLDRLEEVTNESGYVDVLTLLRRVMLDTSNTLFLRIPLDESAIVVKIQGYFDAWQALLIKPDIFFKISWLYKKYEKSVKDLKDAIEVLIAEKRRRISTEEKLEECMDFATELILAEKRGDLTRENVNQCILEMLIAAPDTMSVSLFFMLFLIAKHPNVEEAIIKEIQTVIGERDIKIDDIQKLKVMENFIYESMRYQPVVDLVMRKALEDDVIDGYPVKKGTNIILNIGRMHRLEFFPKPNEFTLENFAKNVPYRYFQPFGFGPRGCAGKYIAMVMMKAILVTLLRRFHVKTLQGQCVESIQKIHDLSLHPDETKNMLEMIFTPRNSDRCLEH

SMILES | IC50
C[C@]12CCC(=O)C=C1C(CCCc1ccccc1)=C[C@@H]1[C@@H]2CC[C@]2(C)C(=O)CC[C@@H]12 | 0.25 µM
CC[C@@H]1C[C@@H]2[C@H](CC[C@]3(C)C(O)CC[C@@H]23)[C@@]2(C)CCCC=C12 (some centres undefined) | 1.3 µM
C[C@]12CCC(=O)C=C1[C@@H](CCc1ccccc1)C[C@@H]1[C@@H]2CC[C@]2(C)C(=O)CC[C@@H]12 | 140 µM
CC[C@]12C=CC(=O)C=C1C=C[C@H]1[C@@H]3CCC(=O)[C@@]3(C)CC[C@@H]12 | 0.36 µM
C[C@]12C=CC(=O)C=C1[C@H](CCCCCc1ccccc1)C[C@@H]1[C@@H]2CC[C@]2(C)C(=O)CC[C@@H]12 | 0.1 µM
C[C@]12CCC(=O)C=C1[C@H](CCCc1ccccc1)C[C@@H]1[C@@H]2CC[C@]2(C)C(=O)CC[C@@H]12 | 290 µM
C[C@]12C=C(Cc3ccccc3)C(=O)C=C1CC[C@@H]1[C@@H]2CC[C@]2(C)C(=O)CC[C@@H]12 | 86.5 µM
CC(=O)OC1C[C@@]2(C)C(=CC1=O)C(=O)C[C@@H]1[C@@H]2CC[C@]2(C)C(=O)CC[C@@H]12 (some centres undefined) | 24 µM
C[C@]12CC[C@H]3[C@@H](CC[C@]4(F)[C@@H](O)C(=O)CC[C@]34C)[C@@H]1CCC2=O | 2.9 µM
CCCCO[C@H]1C[C@@H]2[C@H](CC[C@]3(C)C(=O)CC[C@@H]23)c2ccc(O)cc21 | 170 µM
C[C@]12C[C@@H](CCc3ccc(C(F)(F)F)cc3)C(=O)C=C1CC[C@@H]1[C@@H]2CC[C@]2(C)C(=O)CC[C@@H]12 | 46.6 µM
C[C@]12CCC(=O)C=C1C(N=[N+]=[N-])=C[C@@H]1[C@@H]2CC[C@]2(C)C(=O)CC[C@@H]12 | 4.55 µM
C[C@]12CC[C@@H]3c4ccc(O)c(C=O)c4CC[C@H]3[C@@H]1CC[C@@H]2O | 28.3 µM
CCCC1=C[C@@H]2[C@H](CC[C@]3(C)C(=O)CC[C@@H]23)[C@@]2(C)CCC(=O)C=C12 | 0.315 µM
C[C@]12CC[C@@H]3C4CCC(=O)C(F)=C4CC[C@H]3[C@@H]1CCC2=O (some centres undefined) | 0.4 µM
CCCC[C@@H]1C[C@@H]2[C@H](CC[C@]3(C)C(=O)CC[C@@H]23)[C@@]2(C)C=CC(=O)C=C12 | 0.18 µM
C[C@]12CC[C@@H]3c4ccc(O)cc4[C@@H](c4ccccc4)C[C@H]3[C@@H]1CCC2=O | 1.4 µM

SMILES | IC50
C[C@]12CCC(=O)C=C1[C@H](O)C[C@@H]1[C@@H]2CC[C@]2(C)C(=O)CC[C@@H]12 | 11 µM
CC[C@H]1C[C@@H]2[C@H](CC[C@]3(C)C(O)CC[C@@H]23)[C@@]2(C)CCCC=C12 (some centres undefined) | 0.13 µM
CC[C@H]1C[C@@H]2[C@H](CC[C@]3(C)C(=O)CC[C@@H]23)[C@@]2(C)C=CC(=O)C=C12 | 0.25 µM
CCCC[C@@H]1C[C@@H]2[C@H](CC[C@]3(C)[C@@H](O)CC[C@@H]23)c2ccc(O)cc21 | 44 µM
C[C@]12CCCCC1=CC[C@@H]1[C@@H]2CC[C@]2(C)C(=O)CC[C@@H]12 | 0.681 µM
C[C@]12CC[C@@H]3c4cc(NC(=O)c5ccccn5)c(O)cc4CC[C@H]3[C@@H]1CCC2=O | 209 µM
CCCC[C@@H]1C[C@@H]2[C@H](CC[C@]3(C)C(=O)CC[C@@H]23)c2ccc(O)cc21 | 8.99 µM
CCC[C@H]1C[C@@H]2[C@H](CC[C@]3(C)C(=O)CC[C@@H]23)[C@@]2(C)CCCC=C12 | 0.23 µM
C[C@]12CC[C@H]3[C@@H](CCC4=CCCC[C@@]43C(F)F)[C@@H]1CCC2=O | 1.2 µM
C[C@]12CC[C@H]3[C@@H](CCC4C(=O)[C@H](O)CC[C@@]43C)[C@@H]1CC[C@@H]2O (some centres undefined) | 3.9 µM
CCC1C[C@H]2[C@@H]3CC[C@H](O)[C@@]3(C)CC[C@@H]2[C@@]2(C)CCC(=O)C=C12 (some centres undefined) | 0.052 µM
C[C@]12CC[C@H]3[C@@H](CCC4=CC(=O)CC[C@@]43CCl)[C@@H]1CCC2=O | 1.4 µM
C[C@]12C=CC(=O)C=C1C(Cc1ccccc1)=C[C@@H]1[C@@H]2CC[C@]2(C)C(=O)CC[C@@H]12 | 0.0929 µM
COc1cc2c(cc1O)CC[C@@H]1[C@@H]2CC[C@]2(C)C(=O)CC[C@@H]12 | 17 µM
CCC1=C[C@@H]2[C@H](CC[C@]3(C)C(=O)CC[C@@H]23)[C@@]2(C)CCC(=O)C=C12 | 0.39 µM
C[C@]12CC[C@@H]3c4ccc(OC(=O)c5ccno5)cc4CC[C@H]3[C@@H]1CCC2=O | 244 µM
CC[C@]12CCC(=O)C=C1CC[C@@H]1[C@@H]2CC[C@]2(C)C(=O)CC[C@@H]12 | 0.3 µM
